# Counter-ions that a name gives are not always drawn.
# Tests used:
# Adrenergic β2 = biological target: T1, Adrenergic β2 (Homo sapiens, UniProt P07550); test: Adrenergic β2 mediated cAMP production in H292 cells (AlphaScreen cAMP detection); type: cell-based; design: key to β2 Int Act: fraction of formoterol maximum activity (formoterol = 1); conditions: for β2 Int Act: Intrinsic Activity as a fraction relative to the maximum activity determined for formoterol; for EC50: cAMP production, 60 minutes at room temperature, 300 μM rolipram, read-out: β2 pEC50 (converted)
# T1 construct: Adherent H292 cells were removed from tissue culture flasks; endogenous in cells; host or cells: H292 cells
# How it was run: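 H292 cells pre-treated 10 min with rolipram (300 μM final), then given agonist for 60 min at room temperature in HBSS/10 mM HEPES pH 7.4, 1.6% DMSO final. Lysate cAMP measured by AlphaScreen against a cAMP standard curve. Four-parameter fit gives pEC50; intrinsic activity relative to formoterol maximum.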
# [1] = biological target: T2, recombinant human adrenergic beta 1 receptors (Homo sapiens, UniProt P08588); test: Adrenergic β1 selectivity assay, [125I]-Iodocyanopindolol binding to membranes; conditions: inhibition of [125I]-Iodocyanopindolol binding, read-out: β1 bind pIC50 (converted)
# T2 construct: purchased Euroscreen
# How it was run: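 Displacement of [^125I]-Iodocyanopindolol (0.036 nM final) from human β1 receptor membranes, 2 hours at room temperature, pH 7.4 HEPES/EDTA/NaCl buffer. After filtration, scintillation counting; NSB set with 10 μM propranolol and subtracted. Four-parameter logistic fitting gave pIC50.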
# [2] = biological target: T3, recombinant human Dopamine Subtype D2s receptors (Homo sapiens, UniProt P14416); test: Dopamine D2 selectivity assay, [3H]-spiperone binding to membranes; conditions: inhibition of [3H]-spiperone binding, read-out: D2 bind pIC50 (converted)
# T3 construct: purchased Perkin Elmer
# How it was run: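 Human D2s receptor membranes incubated 2 h at room temperature with 0.16 nM [3H]-spiperone and test compound in HEPES buffer pH 7.4 (120 mM NaCl, 0.1% gelatin). Non-specific binding defined with 10 μM haloperidol; filter-bound radioactivity counted, pIC50 from four-parameter logistic fit.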
# T1 sequence (P07550 whole entry): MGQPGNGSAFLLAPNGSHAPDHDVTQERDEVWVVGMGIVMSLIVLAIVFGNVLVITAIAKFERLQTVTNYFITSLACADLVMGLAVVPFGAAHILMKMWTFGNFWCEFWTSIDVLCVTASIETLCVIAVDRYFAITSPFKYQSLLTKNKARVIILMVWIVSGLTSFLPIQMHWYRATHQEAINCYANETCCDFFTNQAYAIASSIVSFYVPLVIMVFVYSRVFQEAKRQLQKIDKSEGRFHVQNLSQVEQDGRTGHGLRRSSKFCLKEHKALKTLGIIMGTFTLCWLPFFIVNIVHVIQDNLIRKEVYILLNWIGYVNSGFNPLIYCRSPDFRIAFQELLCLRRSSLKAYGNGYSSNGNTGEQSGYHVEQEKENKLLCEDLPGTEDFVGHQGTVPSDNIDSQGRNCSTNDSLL
# T2 sequence (P08588 whole entry): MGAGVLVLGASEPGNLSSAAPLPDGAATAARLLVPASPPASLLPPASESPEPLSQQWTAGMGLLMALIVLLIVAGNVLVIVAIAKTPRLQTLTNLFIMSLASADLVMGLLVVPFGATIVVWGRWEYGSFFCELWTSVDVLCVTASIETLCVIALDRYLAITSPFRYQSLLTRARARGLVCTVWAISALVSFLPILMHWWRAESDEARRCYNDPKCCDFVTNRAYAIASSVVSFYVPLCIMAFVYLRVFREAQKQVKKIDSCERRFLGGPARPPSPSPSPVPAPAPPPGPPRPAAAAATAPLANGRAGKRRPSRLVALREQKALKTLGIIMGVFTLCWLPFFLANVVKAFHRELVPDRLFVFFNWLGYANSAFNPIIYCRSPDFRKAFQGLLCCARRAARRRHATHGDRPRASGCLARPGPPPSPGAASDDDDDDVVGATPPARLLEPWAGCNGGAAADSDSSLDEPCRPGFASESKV
# T3 sequence (P14416 1-414 isoform P14416-2): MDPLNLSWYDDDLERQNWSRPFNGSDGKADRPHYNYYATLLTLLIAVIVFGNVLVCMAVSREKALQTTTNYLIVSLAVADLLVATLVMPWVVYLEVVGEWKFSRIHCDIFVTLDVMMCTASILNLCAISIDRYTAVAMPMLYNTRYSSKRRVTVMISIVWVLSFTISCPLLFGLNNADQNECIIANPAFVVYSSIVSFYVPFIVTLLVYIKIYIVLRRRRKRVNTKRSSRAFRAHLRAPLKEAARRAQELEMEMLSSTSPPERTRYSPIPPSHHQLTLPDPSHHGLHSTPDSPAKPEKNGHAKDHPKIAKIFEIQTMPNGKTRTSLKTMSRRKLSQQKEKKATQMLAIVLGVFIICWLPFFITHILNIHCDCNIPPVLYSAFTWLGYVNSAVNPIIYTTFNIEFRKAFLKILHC
Compound,β2 Int Act (Adrenergic β2),EC50 (Adrenergic β2) [nM],IC50 [1] [nM],IC50 [2] [nM]
"O=C1COc2c(CCNCCN(C(=O)CCOCCc3cccc(F)c3)C3CCCCC3)ccc(O)c2N1 [Example 74, N-Cyclohexyl-3-(3-fluorophenethoxy)-N-(2-(2-(5-hydroxy-3-oxo-3,4-dihydro-2H-benzo[b][1,4]oxazin-8-yl)ethylamino)ethyl)propanamide trifluoroacetate]",0.97,2,2510,2000
"O=C1COc2c(CCNCCN(C(=O)CCNCCc3cccc(Cl)c3Cl)C3CCCCC3)ccc(O)c2N1 [Example 29, N-Cyclohexyl-3-(2,3-dichlorophenethylamino)-N-(2-(2-(5-hydroxy-3-oxo-3,4-dihydro-2H-benzo[b][1,4]oxazin-8-yl)ethylamino)ethyl)propanamide bis(trifluoroacetate)]",0.91,5.01,3160,100
"O=C(CCNCCc1cccc(Cl)c1)N(CCNCCc1ccc(O)c2[nH]c(=O)ccc12)C1CCCCC1 [Example 13, 3-(3-Chlorophenethylamino)-N-cyclohexyl-N-(2-(2-(8-hydroxy-2-oxo-1,2-dihydroquinolin-5-yl)ethylamino)ethyl)propanamide bis(trifluoroacetate)]",0.86,7.94,> 10000,50.1
"O=C1COc2c(CCNCCN(C(=O)CCOCCc3ccccc3)C3CCCCC3)ccc(O)c2N1 [Example 70, N-Cyclohexyl-N-(2-(2-(5-hydroxy-3-oxo-3,4-dihydro-2H-benzo[b][1,4]oxazin-8-yl)ethylamino)ethyl)-3-phenethoxypropanamide trifluoroacetate]",0.97,3.98,3980,1000
"O=C(CCNCCc1ccc(Cl)cc1)N(CCNCCc1ccc(O)c2[nH]c(=O)ccc12)C1CCCCCC1 [Example 4, 3-(4-Chlorophenethylamino)-N-cycloheptyl-N-(2-(2-(8-hydroxy-2-oxo-1,2-dihydroquinolin-5-yl)ethylamino)ethyl)propanamide bis(trifluoroacetate)]",0.79,20,3160,79.4
"CC(C)[C@@H](C)N(CCNCCc1ccc(O)c2[nH]c(=O)ccc12)C(=O)CCOCCc1ccccc1.Cl [Example 80, (R)—N-(2-(2-(8-Hydroxy-2-oxo-1,2-dihydroquinolin-5-yl)ethylamino)ethyl)-N-(3-methylbutan-2-yl)-3-phenethoxypropanamide hydrochloride]",1.04,25.1,> 10000,2510
"O=C1COc2c(CCNCCN(C(=O)CCNCCc3ccccc3)C3CCCCCC3)ccc(O)c2N1 [Example 24, N-Cycloheptyl-N-(2-(2-(5-hydroxy-3-oxo-3,4-dihydro-2H-benzo[b][1,4]oxazin-8-yl)ethylamino)ethyl)-3-(phenethylamino)propanamide bis(trifluoroacetate)]",0.85,1,631,158
"O=C1COc2c(CCNCCN(C(=O)CCNCCc3ccc(Cl)c(Cl)c3)C3CCCCC3)ccc(O)c2N1 [Example 30, N-Cyclohexyl-3-(3,4-dichlorophenethylamino)-N-(2-(2-(5-hydroxy-3-oxo-3,4-dihydro-2H-benzo[b][1,4]oxazin-8-yl)ethylamino)ethyl)propanamide bis(trifluoroacetate)]",0.92,3.98,2510,50.1
"CCCC[C@@H](C)N(CCNCCc1ccc(O)c2c1OCC(=O)N2)C(=O)CCNCCc1ccc(F)c(Cl)c1 [Example 48, (R)-3-(3-Chloro-4-fluorophenethylamino)-N-(hexan-2-yl)-N-(2-(2-(5-hydroxy-3-oxo-3,4-dihydro-2H-benzo[b][1,4]oxazin-8-yl)ethylamino)ethyl)propanamide bis(trifluoroacetate)]",0.91,2,794,79.4
"O=C1COc2c(CCNCCN(C(=O)CCNCCc3cccc(Cl)c3)C3CCCCC3)ccc(O)c2N1 [Example 27, 3-(3-Chlorophenethylamino)-N-cyclohexyl-N-(2-(2-(5-hydroxy-3-oxo-3,4-dihydro-2H-benzo[b][1,4]oxazin-8-yl)ethylamino)ethyl)propanamide bis(trifluoroacetate)]",0.89,2,3160,251
"O=C1COc2c(CCNCCN(C(=O)CCNCCc3ccc(F)c(F)c3)C3CCCCCC3)ccc(O)c2N1 [Example 67, N-Cycloheptyl-3-(3,4-difluorophenethylamino)-N-(2-(2-(5-hydroxy-3-oxo-3,4-dihydro-2H-benzo[b][1,4]oxazin-8-yl)ethylamino)ethyl)propanamide bis(trifluoroacetate)]",0.87,3.16,1000,100
"CCCC[C@@H](C)N(CCNCCc1ccc(O)c2c1OCC(=O)N2)C(=O)CCNCCc1ccc(F)c(F)c1 [Example 52, (R)-3-(3,4-Difluorophenethylamino)-N-(hexan-2-yl)-N-(2-(2-(5-hydroxy-3-oxo-3,4-dihydro-2H-benzo[b][1,4]oxazin-8-yl)ethylamino)ethyl)propanamide bis(trifluoroacetate)]",0.95,10,1580,63.1
"CCCC[C@@H](C)N(CCNCCc1ccc(O)c2c1OCC(=O)N2)C(=O)CCNCCc1cccc(Cl)c1 [Example 44, (R)-3-(3-Chlorophenethylamino)-N-(hexan-2-yl)-N-(2-(2-(5-hydroxy-3-oxo-3,4-dihydro-2H-benzo[b][1,4]oxazin-8-yl)ethylamino)ethyl)propanamide bis(trifluoroacetate)]",0.89,2,1260,79.4
"O=C1COc2c(CCNCCN(C(=O)CCNCCc3cc(F)cc(F)c3)C3CCCCC3)ccc(O)c2N1 [Example 35, N-Cyclohexyl-3-(3,5-difluorophenethylamino)-N-(2-(2-(5-hydroxy-3-oxo-3,4-dihydro-2H-benzo[b][1,4]oxazin-8-yl)ethylamino)ethyl)propanamide bis(trifluoroacetate)]",0.87,1.58,> 10000,251
"O=C1COc2c(CCNCCN(C(=O)CCNCCc3cc(F)cc(Cl)c3)C3CCCCCC3)ccc(O)c2N1 [Example 66, 3-(3-Chloro-5-fluorophenethylamino)-N-cycloheptyl-N-(2-(2-(5-hydroxy-3-oxo-3,4-dihydro-2H-benzo[b][1,4]oxazin-8-yl)ethylamino)ethyl)propanamide bis(trifluoroacetate)]",0.99,2.51,1580,39.8
"O=C(CCNCCc1cc(F)ccc1F)N(CCNCCc1ccc(O)c2[nH]c(=O)ccc12)C1CCCCC1 [Example 17, N-Cyclohexyl-3-(2,5-difluorophenethylamino)-N-(2-(2-(8-hydroxy-2-oxo-1,2-dihydroquinolin-5-yl)ethylamino)ethyl)propanamide bis(trifluoroacetate)]",0.93,3.98,12600,1260

# — US20100056508A1, “AMINE DERIVATIVES AND THEIR USE IN BETA-2-ADRENORECEPTOR MEDIATED DISEASES” (ASTRAZENECA AB, priority 2006, published 2010)
